Assay results taken from patent publication US20240262842A1, “SMALL MOLECULE INHIBITORS OF KRAS G12C MUTANT” (Merck Sharp & Dohme LLC, priority 2021, published 2024).
Where two headings read alike, the source gives them in different places.

Tests used:
[1] = biological target: T1, interaction between GMPPNP-bound recombinant K-Ras4B G12C mutant protein and cRAF RAS-binding domain (cRAF-RBD) (Homo sapiens, UniProt P01116, G12C); experiment: Inhibitory activity on interaction between KRAS G12C and cRAF (Alpha technology)
T1 construct: His-tag (N)
T1 sequence (P01116 with tags, fused parts or gaps isoform P01116-2 G12C): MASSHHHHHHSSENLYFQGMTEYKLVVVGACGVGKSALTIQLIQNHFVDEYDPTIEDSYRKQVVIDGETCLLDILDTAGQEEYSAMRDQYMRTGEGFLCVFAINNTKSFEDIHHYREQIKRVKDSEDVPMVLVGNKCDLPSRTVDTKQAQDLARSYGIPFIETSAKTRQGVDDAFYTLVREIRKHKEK
Summary of the method: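 Alpha signal measured 1.5 h after adding cRAF-RBD (aa 50-132) and detection reagents to GMPPNP-bound KRAS G12C (aa 1-169) pretreated 1 h at 25° C with compound (pH 7.5 buffer). 0% inhibition = DMSO, 100% = GDP-loaded KRAS; IC50 by curve fit.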

MIA PaCa-2 cells = experiment: Growth inhibition activity on KRAS-G12C mutant cell line (CellTiter-Glo 3D); type: cell-based, human; settings: MIA PaCa-2, 3-day culture with compound
Summary of the method: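 IC50 (nM) derived from inhibition of luminescence (CellTiter-Glo 3D) relative to compound-free wells. Cells were seeded in U-bottom plates, grown 1 day, then exposed to compound for 3 days at 37 °C with 0.2% final DMSO.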

[2] = GMPPNP-bound KRAS G12C incubated with compound 25° C. 1 hour, Table 2-1, read-out: IC50
[3] = Homo sapiens, MIA PaCa-2, 72 h, Table 3-1
[4] = IC50, GMPPNP-bound KRAS G12C incubated with compound 25° C. 1 hour, Table 2
[5] = Homo sapiens, MIA PaCa-2, 72 h, Table 3

Row | SMILES | IC50 [1, 2] [nM] | IC50 (MIA PaCa-2 cells; Table 3-1) [nM] | IC50 (MIA PaCa-2 cells; [3]) [nM] | IC50 [1, 4] [nM] | IC50 (MIA PaCa-2 cells; [5]) [nM]
1 | CC(O)[C@]1(C)CCCN1C/C=C/C(=O)Nc1c(F)cc(C(=O)c2cc3c4c(cccn24)-c2c(C(F)(F)F)cc4c(ncn4C)c2N(C)CC3)cc1F (single isomer, unassigned) [Example 205] | 29.5 | 8.55 | – | – | –
2 | CN1CCc2cc(C(=O)c3cc(F)c(NC(=O)/C=C/CN4[C@@H]5CC[C@H]4[C@H](O)C5)c(F)c3)n3cccc(c23)-c2c(C(F)(F)F)cc3c(ncn3C)c21 (single isomer, unassigned) [Example 206] | 15.4 | – | 10.3 | – | –
3 | CN1CCc2cc(C(=O)c3cc(F)c(NC(=O)/C=C/CN4[C@@H]5CC[C@H]4[C@H](O)C5)c(F)c3)n3cccc(c23)-c2c(C(F)(F)F)cc3c(ncn3C)c21 (single isomer, unassigned) [Example 207] | 26.9 | 11.2 | – | – | –
4 | Cc1nnc2c3c(c(C(F)(F)F)cn12)-c1cccn2c(C(=O)c4cc(F)c(NC(=O)/C=C/CNC5(C)COC5)c(F)c4)cc(c12)CCN3C (single isomer, unassigned) [Example 216, (E)-N-(4-(10,13-dimethyl-7-(trifluoromethyl)-14,15-dihydro-13H-[1,2,4]-triazolo[4″,3″:1′,2′]pyrido-[3′,4′:2,3]azocino[4,5,6-hi]indolizine-2-carbonyl)-2,6-difluorophenyl)-4-((3-methyloxetan-3-yl)-amino)but-2-enamide] | 57.6 | – | 23.3 | – | –
5 | Cc1nnc2c3c(c(C(F)(F)F)cn12)-c1cccn2c(C(=O)c4cc(F)c(NC(=O)/C=C/CNC5(C)CC5)c(F)c4)cc(c12)CCN3C (single isomer, unassigned) [Example 223, (E)-N-(4-(10,13-dimethyl-7-(trifluoromethyl)-14,15-dihydro-13H-[1,2,4]-triazolo[4″,3″:1′,2′]-pyrido[3′,4′:2,3]azocino-[4,5,6-hi]indolizine-2-carbonyl)-2,6-difluoro-phenyl)-4-((1-methyl-cyclopropyl)amino)but-2-enamide] | 20.1 | – | 23.7 | – | –
6 | COCc1nc2c3c(c(OC)cc2n1C)-c1cccn2c(C(=O)c4cc(F)c(NC(=O)/C=C/CN[C@H]5CCOC5)c(F)c4)c(C)c(c12)CCN3C (single isomer, unassigned) [Example 231] | 101 | – | 73.4 | – | –
7 | COc1cc2c(nc(C)n2C)c2c1-c1cc(F)cn3c(C(=O)c4cc(F)c(NC(=O)/C=C/CN[C@H]5CCOC5)c(F)c4)cc(c13)CCN2C (single isomer, unassigned) [Example 237] | 11.4 | – | 2.77 | – | –
8 | COc1cc2c(nc(C)n2C)c2c1-c1cc(F)cn3c(C(=O)c4cc(F)c(NC(=O)/C=C/CNC5(C)CC5)c(F)c4)cc(c13)CCN2C (single isomer, unassigned) [Example 238] | 8.76 | – | 2.7 | – | –
9 | Cc1cnc2c3c(c(C(F)(F)F)cn12)-c1cccn2c(C(=O)c4cc(F)c(NC(=O)/C=C/CN[C@H]5CCOC5)c(F)c4)cc(c12)CCN3C (single isomer, unassigned) [Example 242] | 17.8 | – | 16.7 | – | –
10 | COCCn1c(COC)nc2c3c(c(OC)cc21)-c1cccn2c(C(=O)c4cc(F)c(NC(=O)/C=C/CNC5(C)CC5)c(F)c4)cc(c12)CCN3C (single isomer, unassigned) [Example 244] | 15.5 | – | 10 | – | –
11 | COCCn1c(COC)nc2c3c(c(OC)cc21)-c1cccn2c(C(=O)c4cc(F)c(NC(=O)/C=C/CN[C@H]5CCOC5)c(F)c4)cc(c12)CCN3C (single isomer, unassigned) [Example 247] | 23.4 | – | 28.5 | – | –
12 | CO[C@H]1CC[C@H](NC/C=C/C(=O)Nc2c(F)cc(C(=O)c3cn4c5c(cccc35)-c3c(Cl)cccc3OCCCC4)cc2F)CC1 [Example 3, (E)-N-(4-(12-chloro-4,5,6,7-tetrahydrobenzo[2,3][1,6]oxazecino[4,5,6-hi]indole-1-carbonyl)-2,6-difluorophenyl)-4-(((1,4r)-4-methoxycyclohexyl)amino)but-2-enamide] | – | – | – | 2700 | 4400
13 | CO[C@H]1CC[C@H](NC/C=C/C(=O)Nc2c(F)cc(C(=O)c3cn4c5c(cccc35)-c3c(C)cccc3OCC4)cc2F)CC1 [Example 6, (E)-N-(2,6-difluoro-4-(10-methyl-4,5-dihydrobenzo[7,8][1,4]oxazocino[6,5,4-hi]indole-1-carbonyl)phenyl)-4-(((1r,4r)-4-methoxycyclohexyl)amino)but-2-enamide] | – | – | – | 160 | 670
14 | CO[C@H]1CC[C@H](NC/C=C/C(=O)Nc2c(F)cc(C(=O)c3cn4c5c(cccc35)-c3c(F)cccc3OCC4)cc2F)CC1 [Example 7] | – | – | – | 840 | 1100
15 | CO[C@H]1CC[C@H](NC/C=C/C(=O)Nc2c(F)cc(C(=O)c3cn4c5c(cccc35)-c3c(Cl)cc(N5CCCC5=O)cc3OCC4)cc2F)CC1 [Example 8, (E)-N-(4-(10-chloro-8-(2-oxopyrrolidin-1-yl)-4,5-dihydrobenzo[7,8][1,4]oxazocino[6,5,4-hi]indole-1-carbonyl)-2,6-difluorophenyl)-4-(((1r,4t)-4-methoxycyclohexyl)amino)but-2-enamide] | – | – | – | 150 | 160
16 | CO[C@H]1CC[C@H](NC/C=C/C(=O)Nc2c(F)cc(C(=O)c3cn4c5c(cccc35)-c3c(ccc(C#N)c3Cl)OCC4)cc2F)CC1 [Example 9, (E)-N-(4-(10-chloro-9-cyano-4,5-dihydrobenzo[7,8][1:4]oxazocino[6,5,4-hi]indole-1-9 carbonyl)-2,6-difluorophenyl)-4-(((1,4r)-4-methoxycyclohexyl)amino)but-2-enamide] | – | – | – | 1500 | 760
17 | COc1cccc2c1-c1cccc3c(C(=O)c4cc(F)c(NC(=O)/C=C/CN[C@H]5CC[C@H](OC)CC5)c(F)c4)cn(c13)CCO2 [Example 10, (E)-N-(2,6-difluoro-4-(10-methoxy-4,5-dihydrobenzo[7,8][1,4]oxazocino[6,5,4-hi]indole-1-carbonyl)phenyl)-4-(((1,4r)-4-methoxycyclohexyl)amino)but-2-enamide] | – | – | – | 150 | 230
18 | Cc1cc2c(nc(C)n2C)c2c1-c1cccc3c(C(=O)c4cc(F)c(NC(=O)/C=C/CNC(C)(C)C)c(F)c4)cn(c13)CCO2 [Example 13, (E)-4-(tert-butylamino)-N-(2,6-difluoro-4-(6,8,9-trimethyl-12,13-dihydro-SH-imidazo[4″,5″:3′,4′]benzo[1′,2:7,8][1,4]oxazocino[6,5,4-hi]indole-2-carbonyl)phenyl)but-2-enamide] | – | – | – | 17 | 59
19 | CO[C@H]1CC[C@H](NC/C=C/C(=O)Nc2c(F)cc(C(=O)c3cn4c5c(cccc35)-c3c(C)cc5c(nc(C)n5C)c3OC4)cc2F)CC1 [Example 16, (E)-N-(2,6-difluoro-4-(2,3,5-trimethyl-3H,12H-imidazo[4″,5″.3′,4′]benzo[1′,2:6,7][1,3]oxazepino[5,4,3-hi]indole-9-carbonyl)phenyl)-4-(((1r,4r)-4-methoxycyclohexyl)amino)but-2-enamide] | – | – | – | 100 | 56
20 | CO[C@H]1CC[C@H](NC/C=C/C(=O)Nc2c(F)cc(C(=O)c3cn4c5c(cccc35)-c3c(C)cc5c(nc(C)n5C)c3OC[C@H]4C)cc2F)CC1 [Example 17, (E)-N-(2,6-difluoro-4-((R)-6,8,9,13-tetramethyl-12,13-dihydro-8H-imidazo[4″,5″;3′,4′]benzo[1′,2:7,8][1,4]oxazocino[6,5,4-hi]indole-2-carbonyl)phenyl)-4-(((1,4r)-4-methoxycyclohexyl)amino)but-2-enamide] | – | – | – | 1300 | 820
21 | CO[C@H]1CC[C@H](NC/C=C/C(=O)Nc2c(F)cc(C(=O)c3cn4c5c(cccc35)-c3c(C)cc5c(nc(C)n5C)c3OC[C@@H]4C)cc2F)CC1 [Example 18, (E)-N-(2,6-difluoro-4-((S)-6,8,9,13-tetramethyl-12,13-dihydro-8H-imidazo[4″,5″:3′,4]benzo[1′,2′:7,8][1,4]oxazocino[6,5,4-hi]indole-2-carbonyl)phenyl)-4-(((1,4r)-4-methoxycyclohexyl)amino)but-2-enamide] | – | – | – | 19 | 21
22 | CO[C@H]1CC[C@H](NC/C=C/C(=O)Nc2c(F)cc(C(=O)c3cn4c5c(cccc35)-c3c(C)cc5c(nc(C)n5C)c3O[C@H](C)C4)cc2F)CC1 [Example 19, (E)-N-(2,6-difluoro-4-((R)-6,8,9,12-tetramethy 1-12,13-dihydro-8H-imidazo[4″,5″:3′,4′]benzo[1′,2′:7,8][1,4]oxazocino[6,5,4-hi]indole-2-carbonyl)phenyl)-4-(((1,4r)-4-methoxycyclohexyl)amino)but-2-enamide] | – | – | – | > 6700 | 3300
23 | CO[C@H]1CC[C@H](NC/C=C/C(=O)Nc2c(F)cc(C(=O)c3cn4c5c(cccc35)-c3c(C)cc5c(nc(C)n5C)c3OC[C@@H](C)C4)cc2F)CC1 [Example 22, (E)-N-(2,6-difluoro-4-((S)-6,8,9,13-tetramethyl-13,14-dihydro-8H, 12H-imidazo[4″,5″:3′,4′]benzo[1′,248,9][1,5]oxazonino[7,6,5-hi]indole-2-carbonyl)phenyl)-4-(((1,4r)-4-methoxycyclohexyl)amino)but-2-enamide] | – | – | – | 100 | 100
